Laboratory results from patent US12138398B2, “Methods and devices for providing a stimulus to a subject to induce gamma oscillations” (Massachusetts Institute of Technology, priority 2015, dated 2024).
Values joined by “and” are separate entries in the source; they are usually repeats but may differ in a detail not shown here. Equal values may be shown once. Read-outs that look alike come from different tables or passages of the source.

Assays:
AD patients = conditions: cited from earlier work
[1] = tested on: organotypic hippocampal slices prepared from transgenic (Tg) mice overexpressing APP; conditions: cited from earlier work
[2] = tested on: Aβ1-40 and Aβ1-42 levels in 5×FAD visual cortex; experiment: Aβ ELISA of visual cortex after one hour 40-Hz light flicker with picrotoxin pretreatment; format: in vivo, mouse
Text: FIGS. 47A and 47B are bar graphs depicting changes in baseline levels of Aβ1-40 and Aβ1-42, respectively, in 5×FAD visual cortex in dark, light, 40-Hz flicker, 20-Hz flicker, 80-Hz flicker, 40-Hz flicker with picrotoxin (PTX) and Random flicker conditions in accordance with some embodiments (n=12 mice per group for dark; n=6 mice per group for light, 40-Hz flicker, 20-Hz flicker, 80-Hz flicker, and PTX; n=4 mice per group for Random flicker; “n.s.” indicates not significant, one asterisk indicates p<0.05, and two asterisks indicate p<0.01 by one-way ANOVA). FIGS. 47 and 47B show mean and SEM. Circles superimposed on bars in the bar graphs indicate individual data points in each group. Following one hour after light exposure, it was observed that Aβ1-40 levels in visual cortex were reduced by 57.96% and Aβ1-42 levels by 57.97% compared to the dark condition (as measured by Aβ ELISA, see, e.g., FIGS. 47A and 47B, p<0.05 by one-way ANOVA, n=6 mice per group). Compared to light controls, amyloid levels were reduced by 62.47% (Aβ1-40) and 68.55% (Aβ1-42) following one hour of 40-Hz flicker (as measured by Aβ ELISA, see, e.g., FIG. 4′7, p<0.05 by one-way ANOVA, n=6 mice per group). […]
Fifteen minutes prior to the experiment 5×FAD mice were treated with saline (Control) or picrotoxin (0.18 mg/kg). For molecular and biochemical analyses mice were then placed in a dark chamber illuminated by an LED bulb and exposed to one of five stimulation conditions: dark, light, 20-Hz flicker, 40-Hz flicker, or 80-Hz flicker (12.5 ms light on, 12.5 ms light off) for one hour (see, e.g., FIG. 43A). For electrophysiological recordings each animal received dark, light, 40-Hz flicker, or random (light pulses were delivered with a random interval determined by a Poisson process with an average interval of 40 Hz) stimulation conditions interleaved in 10 s blocks during recordings. […]

[3] = 5×FAD visual cortex (VC), 40 Hz flicker one hour + PTX (0.18 mg/kg pretreatment), ELISA dilution 1:2, individual mice

Q: With `CC(C)[C@H](O)C(=O)N[C@@H](C)C(=O)N[C@@H]1C(=O)N(C)CCc2ccccc21` [semagacestat] as the compound, how does the “clinical outcome on cognition” value (AD patients; AD subjects) read?
A: worsening of cognitive deficits

Q: Which “clinical outcome on cognition” value (AD patients; AD subjects) does the source give for `CCN(C)C(=O)Oc1cccc([C@H](C)N(C)C)c1` [rivastigmine] here?
A: only mild cognitive benefits

Q: For `COc1cc2c(cc1OC)C(=O)C(CC1CCN(Cc3ccccc3)CC1)C2` (stereo not drawn) [donepezil], which “clinical outcome on cognition” value (AD patients; human, in vivo) is on record?
A: only mild cognitive benefits

Q: Which Aβ levels [1] does the source give for `NC1=N[C@H](O)[C@H]2[C@H]3O[C@]4(O)O[C@@H]([C@@H](O)[C@@]2(N1)[C@@H]4O)[C@]3(O)CO` [tetrodotoxin] here?
A: decreased

Q: And the neuronal activity [1]?
A: decreased

Q: With picrotoxin [PTX] as the compound, how does the neuronal activity ([1]; organotypic hippocampal slices, APP Tg mice) read?
A: increased neuronal activity

Q: And the “effects of 40-Hz flicker on Aβ levels after picrotoxin pretreatment” value ([2]; 5×FAD mice, picrotoxin 0.18 mg/kg)?
A: completely abrogated

Q: What about the “Average Aβ1-40 Concentration” value [2, 3] of the same compound?
A: 367.2 pg/ml and 431.4 pg/ml and 445.2 pg/ml (2×) and 392.4 pg/ml and 386.7 pg/ml

Q: And the Aβ1-42 concentration [2, 3]?
A: 396.6 pg/ml and 540.5 pg/ml and 532.7 pg/ml and 705.0 pg/ml and 104.5 pg/ml (2×)
